Results published in the NIST ThermoML archive (doi:10.1021/je400332j).

Experiment: xn = mol fraction of the nth substance listed
Conditions: 101 kPa, Liquid; for viscosity: Concentric cylinders viscometry; for mass density: Vibrating tube method

CCCn1cc[n+](C)c1.F[B-](F)(F)F [1-propyl-3-methylimidazolium tetrafluoroborate] + CCCCCCn1cc[n+](C)c1.F[B-](F)(F)F
Conditions | mass density [kg/m3] | viscosity [mPa·s]
293.15 K, x1 = 0.1006 | 1154.7 | 257.8
293.15 K, x1 = 0.2005 | 1162.5 | 233.5
293.15 K, x1 = 0.2995 | 1170.4 | 212.7
293.15 K, x1 = 0.3996 | 1179.1 | 195.9
293.15 K, x1 = 0.4991 | 1188.1 | 176.5
293.15 K, x1 = 0.601 | 1197.2 | 158.4
293.15 K, x1 = 0.7001 | 1207.1 | 141.4
293.15 K, x1 = 0.8 | 1217.3 | 125.1
293.15 K, x1 = 0.8987 | 1228 | 110.2
293.15 K, x1 = 1 | 1239.3 | 95.44
298.15 K, x1 = 0.1006 | 1151.2 | 190.4
298.15 K, x1 = 0.2005 | 1159.1 | 173.1
298.15 K, x1 = 0.2995 | 1167.1 | 158.5
298.15 K, x1 = 0.3996 | 1175.6 | 146.3
298.15 K, x1 = 0.4991 | 1184.5 | 132.5
298.15 K, x1 = 0.601 | 1193.7 | 119.6
298.15 K, x1 = 0.7001 | 1203.6 | 107.2
298.15 K, x1 = 0.8 | 1213.9 | 95.66
298.15 K, x1 = 0.8987 | 1224.5 | 84.81
298.15 K, x1 = 1 | 1235.7 | 74.04
303.15 K, x1 = 0.1006 | 1147.8 | 143.5
303.15 K, x1 = 0.2005 | 1155.6 | 131.1
303.15 K, x1 = 0.2995 | 1163.5 | 120.5
303.15 K, x1 = 0.3996 | 1172 | 111.6
303.15 K, x1 = 0.4991 | 1181 | 101.6
303.15 K, x1 = 0.601 | 1190.2 | 92.16
303.15 K, x1 = 0.7001 | 1200 | 83.12
303.15 K, x1 = 0.8 | 1210.2 | 74.61
303.15 K, x1 = 0.8987 | 1220.8 | 66.57
303.15 K, x1 = 1 | 1232 | 58.59
308.15 K, x1 = 0.1006 | 1144.4 | 110.3
308.15 K, x1 = 0.2005 | 1152.1 | 101.2
308.15 K, x1 = 0.2995 | 1160.1 | 93.37
308.15 K, x1 = 0.3996 | 1168.6 | 86.79
308.15 K, x1 = 0.4991 | 1177.4 | 79.34
308.15 K, x1 = 0.601 | 1186.7 | 72.34
308.15 K, x1 = 0.7001 | 1196.4 | 65.59
308.15 K, x1 = 0.8 | 1206.6 | 59.23
308.15 K, x1 = 0.8987 | 1217.2 | 53.19
308.15 K, x1 = 1 | 1228.3 | 47.16
313.15 K, x1 = 0.1006 | 1141 | 86.32
313.15 K, x1 = 0.2005 | 1148.6 | 79.47
313.15 K, x1 = 0.2995 | 1156.6 | 73.61
313.15 K, x1 = 0.3996 | 1165.1 | 68.66
313.15 K, x1 = 0.4991 | 1173.9 | 63.07
313.15 K, x1 = 0.601 | 1183.2 | 57.75
313.15 K, x1 = 0.7001 | 1192.8 | 52.63
313.15 K, x1 = 0.8 | 1203 | 47.79
313.15 K, x1 = 0.8987 | 1213.5 | 43.19
313.15 K, x1 = 1 | 1224.7 | 38.56
318.15 K, x1 = 0.1006 | – | 68.62
318.15 K, x1 = 0.2005 | – | 63.43
318.15 K, x1 = 0.2995 | – | 58.96
318.15 K, x1 = 0.3996 | – | 55.18
318.15 K, x1 = 0.4991 | – | 50.91
318.15 K, x1 = 0.601 | – | 46.8
318.15 K, x1 = 0.7001 | – | 42.87
318.15 K, x1 = 0.8 | – | 39.14
318.15 K, x1 = 0.8987 | – | 35.56
318.15 K, x1 = 1 | – | 31.98
